Test results from PubChem BioAssay (NCI).
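Compound exposure: 48 hours, 5 concentrations, 96-well plates. TGI marks complete inhibition of growth.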

Experiments:
Assay in all cases: inhibition of tumour cell growth, NCI panel, 48 h
NCI-H23 lung = tested on: NCI-H23 lung
UACC-62 melanoma = tested on: UACC-62 melanoma
LOX IMVI melanoma = tested on: LOX IMVI melanoma
NCI-H460 lung = tested on: NCI-H460 lung
OVCAR-3 ovarian = tested on: OVCAR-3 ovarian
UACC-257 melanoma = tested on: UACC-257 melanoma
OVCAR-4 ovarian = tested on: OVCAR-4 ovarian
NCI-H522 lung = tested on: NCI-H522 lung
NCI-H226 lung = tested on: NCI-H226 lung
SNB-19 CNS = tested on: SNB-19 CNS
SK-OV-3 ovarian = tested on: SK-OV-3 ovarian
IGROV1 ovarian = tested on: IGROV1 ovarian
SF-295 CNS = tested on: SF-295 CNS
MOLT-4 leukemia = tested on: MOLT-4 leukemia
ACHN renal = tested on: ACHN renal
CCRF-CEM leukemia = tested on: CCRF-CEM leukemia
NCI/ADR-RES ovarian = tested on: NCI/ADR-RES ovarian
MALME-3M melanoma = tested on: MALME-3M melanoma
HOP-92 NSCLC = tested on: HOP-92 NSCLC

**Q.** With `O=C(CC(=O)Nc1cccc(Cl)c1)NNCC(=O)Nc1nnc(-c2ccccc2)s1` as the compound, how does the TGI (NCI-H23 lung) read?
**A.** > 100 µM

**Q.** What about the TGI (UACC-62 melanoma) of the same compound?
**A.** > 100 µM

**Q.** What about the TGI (LOX IMVI melanoma) of the same compound?
**A.** > 100 µM

**Q.** And the TGI (NCI-H460 lung)?
**A.** > 100 µM

**Q.** And the TGI (OVCAR-3 ovarian)?
**A.** > 100 µM

**Q.** And the TGI (UACC-257 melanoma)?
**A.** > 100 µM

**Q.** And the TGI (OVCAR-4 ovarian)?
**A.** 5.99 µM

**Q.** And the TGI (NCI-H522 lung)?
**A.** > 100 µM

**Q.** What about the TGI (NCI-H226 lung) of the same compound?
**A.** 75.7 µM

**Q.** What about the TGI (SNB-19 CNS) of the same compound?
**A.** > 100 µM

**Q.** And the TGI (SK-OV-3 ovarian)?
**A.** 77.3 µM

**Q.** And the TGI (IGROV1 ovarian)?
**A.** > 100 µM

**Q.** What about the TGI (SF-295 CNS) of the same compound?
**A.** > 100 µM

**Q.** And the TGI (MOLT-4 leukemia)?
**A.** > 100 µM

**Q.** What about the TGI (ACHN renal) of the same compound?
**A.** > 100 µM

**Q.** For `O=C1CCCC2C(O)CCC[C@H]12` (stereo partly drawn), which TGI (NCI-H23 lung) is on record?
**A.** > 100 µM

**Q.** And the TGI (CCRF-CEM leukemia)?
**A.** > 100 µM

**Q.** And the TGI (UACC-62 melanoma)?
**A.** > 100 µM

**Q.** What about the TGI (LOX IMVI melanoma) of the same compound?
**A.** > 100 µM

**Q.** And the TGI (NCI-H460 lung)?
**A.** > 100 µM

**Q.** And the TGI (UACC-257 melanoma)?
**A.** > 100 µM

**Q.** What about the TGI (NCI/ADR-RES ovarian) of the same compound?
**A.** > 100 µM

**Q.** What about the TGI (OVCAR-4 ovarian) of the same compound?
**A.** > 100 µM

**Q.** What about the TGI (NCI-H522 lung) of the same compound?
**A.** > 100 µM

**Q.** What about the TGI (NCI-H226 lung) of the same compound?
**A.** > 100 µM

**Q.** What about the TGI (SNB-19 CNS) of the same compound?
**A.** > 100 µM

**Q.** And the TGI (SK-OV-3 ovarian)?
**A.** > 100 µM

**Q.** And the TGI (IGROV1 ovarian)?
**A.** > 100 µM

**Q.** What about the TGI (MALME-3M melanoma) of the same compound?
**A.** > 100 µM

**Q.** And the TGI (SF-295 CNS)?
**A.** > 100 µM

**Q.** What about the TGI (MOLT-4 leukemia) of the same compound?
**A.** > 100 µM

**Q.** And the TGI (ACHN renal)?
**A.** > 100 µM

**Q.** `Nc1ccc2nc(NCc3ccc(F)cc3)cnc2c1` was tested. Which TGI (NCI-H23 lung) did it give?
**A.** > 100 µM

**Q.** What about the TGI (CCRF-CEM leukemia) of the same compound?
**A.** > 100 µM

**Q.** What about the TGI (UACC-62 melanoma) of the same compound?
**A.** > 100 µM

**Q.** What about the TGI (LOX IMVI melanoma) of the same compound?
**A.** > 100 µM

**Q.** What about the TGI (NCI-H460 lung) of the same compound?
**A.** > 100 µM

**Q.** And the TGI (OVCAR-3 ovarian)?
**A.** > 100 µM

**Q.** What about the TGI (OVCAR-4 ovarian) of the same compound?
**A.** > 100 µM

**Q.** What about the TGI (NCI-H522 lung) of the same compound?
**A.** > 100 µM

**Q.** What about the TGI (NCI-H226 lung) of the same compound?
**A.** > 100 µM

**Q.** And the TGI (SNB-19 CNS)?
**A.** > 100 µM

**Q.** What about the TGI (IGROV1 ovarian) of the same compound?
**A.** > 100 µM

**Q.** What about the TGI (MALME-3M melanoma) of the same compound?
**A.** > 100 µM

**Q.** And the TGI (SF-295 CNS)?
**A.** > 100 µM

**Q.** And the TGI (MOLT-4 leukemia)?
**A.** > 100 µM

**Q.** What about the TGI (ACHN renal) of the same compound?
**A.** > 100 µM

**Q.** For `CC(C)CC[C@H](O)[C@@H](C)[C@H]1[C@@H](OC2OC(C)C(O)C(O)C2O)C[C@H]2[C@@H]3CC=C4C[C@@H](O)CC[C@]4(C)[C@H]3[C@@H](O)C[C@]12C` (stereo partly drawn), which TGI (NCI-H23 lung) is on record?
**A.** > 100 µM

**Q.** And the TGI (UACC-62 melanoma)?
**A.** 3.21 µM

**Q.** What about the TGI (HOP-92 NSCLC) of the same compound?
**A.** 6.7 µM

**Q.** What about the TGI (LOX IMVI melanoma) of the same compound?
**A.** > 100 µM

**Q.** What about the TGI (NCI-H460 lung) of the same compound?
**A.** > 100 µM

**Q.** What about the TGI (OVCAR-3 ovarian) of the same compound?
**A.** > 100 µM

**Q.** And the TGI (UACC-257 melanoma)?
**A.** 2.91 µM

**Q.** And the TGI (NCI/ADR-RES ovarian)?
**A.** > 100 µM

**Q.** And the TGI (NCI-H522 lung)?
**A.** > 100 µM

**Q.** And the TGI (SNB-19 CNS)?
**A.** > 100 µM

**Q.** What about the TGI (SK-OV-3 ovarian) of the same compound?
**A.** > 100 µM

**Q.** And the TGI (IGROV1 ovarian)?
**A.** 40.4 µM

**Q.** What about the TGI (MALME-3M melanoma) of the same compound?
**A.** > 68.9 µM

**Q.** And the TGI (SF-295 CNS)?
**A.** 0.222 µM

**Q.** What about the TGI (MOLT-4 leukemia) of the same compound?
**A.** 0.508 µM

**Q.** What about the TGI (ACHN renal) of the same compound?
**A.** > 100 µM

**Q.** Which results are given for `Cc1nc2ccc(Cl)cc2c2c1CCS2`?
**A.** TGI (NCI-H23 lung): > 100 µM; TGI (CCRF-CEM leukemia): > 100 µM; TGI (UACC-62 melanoma): > 100 µM; TGI (LOX IMVI melanoma): > 100 µM; TGI (NCI-H460 lung): > 100 µM; TGI (OVCAR-3 ovarian): > 100 µM; TGI (UACC-257 melanoma): > 100 µM; TGI (NCI/ADR-RES ovarian): > 100 µM; TGI (OVCAR-4 ovarian): > 100 µM; TGI (NCI-H522 lung): > 100 µM; TGI (NCI-H226 lung): > 100 µM; TGI (SNB-19 CNS): > 100 µM; TGI (SK-OV-3 ovarian): > 100 µM; TGI (IGROV1 ovarian): > 100 µM; TGI (MALME-3M melanoma): > 100 µM; TGI (SF-295 CNS): > 100 µM; TGI (MOLT-4 leukemia): 74.3 µM; TGI (ACHN renal): > 100 µM

**Q.** With `N#CCCN(c1ccc(/C=C2\N=C(Cc3ccccc3)OC2=O)cc1)S(=O)(=O)c1ccccc1` as the compound, how does the TGI (NCI-H23 lung) read?
**A.** > 100 µM

**Q.** What about the TGI (CCRF-CEM leukemia) of the same compound?
**A.** > 100 µM

**Q.** What about the TGI (UACC-62 melanoma) of the same compound?
**A.** > 100 µM

**Q.** And the TGI (LOX IMVI melanoma)?
**A.** > 100 µM

**Q.** What about the TGI (NCI-H460 lung) of the same compound?
**A.** > 100 µM

**Q.** And the TGI (OVCAR-3 ovarian)?
**A.** > 100 µM

**Q.** And the TGI (UACC-257 melanoma)?
**A.** > 100 µM

**Q.** And the TGI (NCI-H522 lung)?
**A.** > 100 µM

**Q.** What about the TGI (NCI-H226 lung) of the same compound?
**A.** > 100 µM

**Q.** And the TGI (SNB-19 CNS)?
**A.** > 100 µM

**Q.** What about the TGI (SK-OV-3 ovarian) of the same compound?
**A.** > 100 µM

**Q.** And the TGI (IGROV1 ovarian)?
**A.** > 100 µM

**Q.** What about the TGI (MALME-3M melanoma) of the same compound?
**A.** > 100 µM

**Q.** And the TGI (SF-295 CNS)?
**A.** > 100 µM

**Q.** What about the TGI (MOLT-4 leukemia) of the same compound?
**A.** > 100 µM

**Q.** And the TGI (ACHN renal)?
**A.** > 100 µM

**Q.** `C=CCOC(=O)Cn1cc(C)c(=O)[nH]c1=O` was tested. Which TGI (NCI-H23 lung) did it give?
**A.** > 100 µM

**Q.** And the TGI (CCRF-CEM leukemia)?
**A.** > 100 µM

**Q.** And the TGI (UACC-62 melanoma)?
**A.** > 100 µM

**Q.** What about the TGI (LOX IMVI melanoma) of the same compound?
**A.** > 100 µM

**Q.** And the TGI (NCI-H460 lung)?
**A.** > 100 µM

**Q.** And the TGI (UACC-257 melanoma)?
**A.** > 100 µM

**Q.** What about the TGI (NCI/ADR-RES ovarian) of the same compound?
**A.** > 100 µM

**Q.** And the TGI (OVCAR-4 ovarian)?
**A.** > 100 µM

**Q.** And the TGI (NCI-H226 lung)?
**A.** > 100 µM

**Q.** What about the TGI (SNB-19 CNS) of the same compound?
**A.** > 100 µM

**Q.** And the TGI (SK-OV-3 ovarian)?
**A.** > 100 µM

**Q.** What about the TGI (IGROV1 ovarian) of the same compound?
**A.** > 100 µM

**Q.** What about the TGI (MALME-3M melanoma) of the same compound?
**A.** > 100 µM

**Q.** What about the TGI (SF-295 CNS) of the same compound?
**A.** > 100 µM

**Q.** What about the TGI (MOLT-4 leukemia) of the same compound?
**A.** > 100 µM

**Q.** And the TGI (ACHN renal)?
**A.** > 100 µM
